What was measured:
[1] = test system: Hela cervical cancer cell line; experiment: In vitro proliferation inhibition of Hela cervical cancer cell line (MTT method); format: cell-based; details: Homo sapiens; Hela cervical cancer cell line, 48 hours drug exposure; read-out: IC50
Procedure: Evaluation of In Vitro Antitumor Activity of Hela Cervical Cancer Tumor Cell Lines with Compounds (MTT Method)
The cells were cultured in RPMI1640 medium containing 200 mL/L fetal bovine serum so that the cells were kept at logarithmic growth. The cells were inoculated to 96-well plate, with a density of 4˜8×10^4/ml, 37° C., and pre-cultured for 24 hours with added drugs. The drugs were set at 6 concentrations, each has 3 holes. After 48 hours of consequent effect, the nutrient solution was then removed and the cells were left for air-drying. Each hole was then added with cold 500 g/L trichloroacetic acid (TCA) 50 μL (final concentration of 100 g/L). After setting for 60 minutes, it was then rinsed for 4-5 times with ionized water and dried. Each hole then was added with 4 g/L SRB 100 μL left for 30 mins. Then it was rinsed with 10 mL/L acetic acid for 4 times, dried. Then 10 mmol Tris-base 200 μL per hole was added, then shaked and mixed, subsequently, oscillating on the plate oscillator for 5 min. The enzyme-linked immunoassay was used to determine the A value. To calibrate, a blank control was used, with a wavelength of 490 nm. Tumor inhibition rate (%)=(Average A value of the control cell hole−Average A value of the drugged hole A)/Average A value of the control cell hole×100%. The positive control cell holes were CA4, CB1, and CB1N. To calculate the IC50 value, the Logit method was used according to the cell growth inhibition rate of different concentrations of the drug.

[2] = test system: human gastric cancer cell MGC-803; experiment: In vitro antitumor activity on tumor cell lines (CCK-8 method), MGC-803; format: cell-based; details: Homo sapiens, MGC-803, 72 hours
Procedure: (§1) Evaluation of In Vitro Antitumor Activity of Compounds on Multiple Tumor Cell Lines (CCK-8 Method)
(§2) Take the living cells with more than 90% cells for testing. The cell proliferation inhibition test was performed using the EnoGeneCell™ Counting Kit-8 (CK-8) cell viability test kit. The cell was digested, counted and prepared into a cell suspension with a concentration of 1×10^5/mL. 100 μL cell suspension (1×10^4 cells per hole) was added to each hole in the 96-well plate. The 96-well plate was cultured in a 37° C., 5% CO2 incubator for 24 hours. With every hole added with 100 μL respective drugged cultured medium, control groups were set up, including negative control group, solvent control group, and positive control group. Each group has 5 holes. The 96-well plates were cultured at 37° C., in 5% CO2 incubator for 72 hours. Afterward, 10 μL CCK-8 solution was added to each hole, and the culture plate was incubated in the incubator for 4 hours, and the OD value at 450 nm was determined by enzyme labeling instrument. The inhibition rate and IC50 value of these compounds on tumor cells such as human gastric cancer cell MGC-803, human liver cancer cell HepG2, human lung cancer cell A549 and human breast cancer cell MDA-MB-231 were calculated.

[3] = test system: human liver cancer cell HepG2; experiment: In vitro antitumor activity on tumor cell lines (CCK-8 method), HepG2; format: cell-based; details: Homo sapiens, HepG2, 72 hours
Procedure: as §1, §2

[4] = test system: human lung cancer cell A549; experiment: In vitro antitumor activity on tumor cell lines (CCK-8 method), A549; format: cell-based; details: Homo sapiens, A549, 72 hours
Procedure: as §1, §2

[5] = test system: human breast cancer cell MDA-MB-231; experiment: In vitro antitumor activity on tumor cell lines (CCK-8 method), MDA-MB-231; format: cell-based; details: Homo sapiens, MDA-MB-231, 72 hours
Procedure: as §1, §2

[6] = test system: gastric cancer MGC-803 transplanted tumor; experiment: Antitumor rate of oral administration in mice with MGC-803 transplanted tumor; format: in vivo; details: for Tumor inhibition rate (%): d0-d12 every 2 days, 7 times, tumor weight
Procedure: Antitumor rate of oral administration of the compound towards MGC-803 mice with transplanted tumor
After 1 week of adaptation, the mice were inoculated with gastric cancer MGC-803 tumor tissue subcutaneously. After the tumor grew for 100-300 mm^3, the animals were randomly grouped. For the drug group, each group of each compound had 6 mice, and 12 mice were in the control group. The intragastric administration was employed and the dosage of Ii, Ij, Ik and Il was 25 and 50 mg/kg. The positive control was CA4, the administration time was d0, d2, d4, d6, d8, d10, d12 days, 7 times in total. The tumor size was measured 3 times per week, together with mice weight. The mice were executed 14 days after inoculation and the tumor mass was taken and measured for its weight. The tumor inhibition rate was calculated as tumor weight inhibition rate, and the formula is tumor weight inhibition rate %=(1-treatment group average tumor weight/control group average tumor weight)×100%.

in vivo = details: both, Kunming, mouse, po
Procedure: (§3) Acute Toxicity Test of Single Gastric Administration in Mice
(§4) Kunming mice (weight 17-22 g, equal male and female) were randomly grouped according to body weight, with 10 mice maximum per dose group in the experiment. […] Given by single intraperitoneal injection and a single intragastric injection, observations were done after 0.25 h, 0.5 h, 1 h, 2 h, 4 h, and 24 h respectively. The mortality rate was recorded. Afterward, the groups were observed once everyday, and the mortality rate was recorded for 14 days. On day 15, the living mice were sacrificed for pathological dissection.

[7] = single intragastric administration, mice
Procedure: as §3, §4

Compound COc1ccc(/C=C\c2cc(OC)c(OC)c(OC)c2)cc1OC(=O)CCn1cc(F)c(=O)[nH]c1=O [Compound Ik, (Z)-5-(3,4,5-trimethoxystyryl)-2-methoxyphenyl-3-(5-fluoro-2,4-dioxo-3,4-dihydropyrimidin-1(2H)-yl)propanoate] has an IC50 [1] of 0.0296 µM, an IC50 [2] of under 0.0003 µM and an IC50 [3] of 7.33 µM. The IC50 [4] was under 0.0003 µM, the IC50 [5] was 80.7 µM and the “Tumor inhibition rate (%)” value ([6]; 25 mg/kg intragastric) was 48%. The “Tumor inhibition rate (%)” value ([6]; 50 mg/kg intragastric) was 75%, the tumor size course ([6]; about 8 days after administration) was “tendency to shrink” and the LD50 at 14 days (in vivo) was over 1000 mg/kg. The “LD50” value [7] was 1185 mg/kg.

From patent US11279678B2 (SHANGHAI ECUST BIOMEDICINE CO., LTD., priority 2017, dated 2022)
